Columns and labels:
[1] = test system: advanced pancreatic cancer; settings: cited from earlier work
[2] = test system: IBS patients; assay: open-label study in forty-two IBS patients; assay type: in vivo, human
Procedure: Forty-two IBS patients participated in an open-label study. Participants received 0.5 mg PTI-901/day for 4 weeks and were evaluated during baseline, during treatment, and at 4-week follow-up. Patients recorded degree of abdominal pain, stool urgency, consistency, and frequency. Primary outcomes were number of pain-free days and overall symptom relief, evaluated by a global assessment score. Data were analyzed per protocol. Global assessment improved in 76% of 42 patients. During treatment, the mean weekly number of pain-free days increased from 0.5+/−1 to 1.25+/−2.14 (P=0.011).

SMILES | Clinical benefit response, historical controls [1] [%] | adverse reactions ([2]; 0.5 mg/day for 4 weeks) | patients with improved global assessment ([2]; 0.5 mg/day for 4 weeks, 42 patients) [%] | mean weekly number of pain-free days during treatment ([2]; 0.5 mg/day, baseline 0.5+/−1, P=0.011) [days]
Nc1ccn([C@@H]2O[C@H](CO)[C@@H](O)C2(F)F)c(=O)n1 [gemcitabine] | 23.8 |  |  | 
Cl.O=C1CC[C@@]2(O)[C@H]3Cc4ccc(O)c5c4[C@@]2(CCN3CC2CC2)[C@H]1O5 [PTI-901] |  | no significant adverse reactions | 76 | 1.25 ± 2.14
O=c1[nH]cc(F)c(=O)[nH]1 [5-fluorouracil (5-FU), 5-fluorouracil] | 4.8 |  |  | 
